US20110263693A1, “CELASTROL, GEDUNIN, AND DERIVATIVES THEREOF AS HSP90 INHIBITORS” (DANA-FARBER CANCER INSTITUTE, INC., priority 2006, published 2011)

Experiments:
[1] = system: androgen signaling signature in LNCaP cells; experiment: GE-HTS androgen signaling signature assay / screen; conditions: for GE-HTS screen # replicates that score as the androgon deprived state (n = 3): KNN / GE-HTS screen # replicates that score as the androgon deprived state (n = 3): Naïve Bayes classifier (P < 0.05) / GE-HTS screen # replicates that score as the androgon deprived state (n = 3): unweighted summed score (P < 0.05) / GE-HTS screen # replicates that score as the androgon deprived state (n = 3): weighted summed score (P < 0.05): LNCaP, 1 nM R1881 plus compound ~20 μM, 24 hr, count of 3 replicates
LNCaP cells = experiment: Viability screen, luminescent ATP quantitation assay; conditions: 1 nM R1881 plus compound ~20 μM, 3 days
celastrol signature = experiment: Connectivity Map query with the celastrol signature; assay type: cell-based, human; parameters: key to celastrol score (connectivity score): connectivity score, based on Kolmogorov-Smirnov statistic; conditions: for celastrol score (connectivity score): enrichment of the celastrol signature (1.25 μM celastrol at 6 h, LNCaP) in the compound's Connectivity Map profiles, 6 hr treatment
Method in brief: (§1)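 LNCaP cells received celastrol 1.25 μM or gedunin 20 μM for 6 h. Each signature was scored by Kolmogorov–Smirnov-based connectivity against 453 build01 profiles, mostly 6 h treatments of MCF7 cells.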

gedunin signature = experiment: Connectivity Map query with the gedunin signature; assay type: cell-based, human; parameters: key to gedunin score (connectivity score): connectivity score, based on Kolmogorov-Smirnov statistic; conditions: for gedunin score (connectivity score): enrichment of the gedunin signature (20 μM gedunin at 6 hours, LNCaP) in the compound's Connectivity Map profiles, 6 hr treatment
Method in brief: as §1

[2] = control wells, 1 nM R1881 plus 10 μM casodex, count of n = 336

Row | Compound | GE-HTS screen # replicates that score as the androgon deprived state (n = 3): KNN [1] | GE-HTS screen # replicates that score as the androgon deprived state (n = 3): Naïve Bayes classifier (P < 0.05) [1] | GE-HTS screen # replicates that score as the androgon deprived state (n = 3): unweighted summed score (P < 0.05) [1] | GE-HTS screen # replicates that score as the androgon deprived state (n = 3): weighted summed score (P < 0.05) [1] | also measured
1 | C[C@@H]1[C@H](O)[C@@H](C)/C=C/C=C/CC/C=C/C=C/C=C/C=C/C(O[C@H]2O[C@H](C)[C@@H](O)[C@H](N)[C@@H]2O)CC2O[C@](O)(CC(O)C(O)CCC(O)CC(O)CC(O)CC(=O)O[C@H]1C)CC(O)C2C(=O)O (some centres unmarked) [nystatin, reference compound] | 2 | 2 | 0 | 0 | viability screen: viability (% [ATP] normalized to R1881-treated control) (LNCaP cells): 74.5%
2 | CC[C@@]1([C@@H]2O[C@@H]([C@H]3O[C@@](O)(CO)[C@H](C)C[C@@H]3C)C[C@@H]2C)CC[C@H]([C@]2(C)CC[C@]3(C[C@H](O)[C@@H](C)[C@@H]([C@@H](C)[C@@H](OC)[C@H](C)C(=O)O)O3)O2)O1 [monensin A, reference compound] | 2 | 2 | 0 | 0 | viability screen: viability (% [ATP] normalized to R1881-treated control) (LNCaP cells): 113.6%
3 | CN(C)CCOC(c1ccccc1)c1ccccc1.Cn1c(=O)c2[nH]c(Cl)nc2n(C)c1=O [dimenhydrinate, reference compound] | 3 | 3 | 0 | 0 | –
4 | CC(C)(C)c1cc(/C=C(\C#N)C(N)=S)cc(C(C)(C)C)c1O [AG-879, reference compound] | 3 | 2 | 2 | 2 | –
5 | CC1(C)C(=O)C=C[C@]2(C)[C@H]3CC[C@@]4(C)[C@H](c5ccoc5)OC(=O)[C@H]5O[C@]54[C@]3(C)C=C[C@@H]12 [7-desacetoxy-6,7-dehydrogedunin] | 3 | 3 | 3 | 3 | –
6 | COP(=S)(OC)Oc1ccc([N+](=O)[O-])cc1 [methyl parathione] | 3 | 1 | 3 | 0 | –
7 | CC1(C)C(=O)CC[C@]2(C)[C@H]3CC[C@]4(C)C(=CC(=O)O[C@H]4c4ccoc4)[C@]3(C)[C@H](O)C[C@@H]12 [dihydro-7-desacetyldeoxygedunin] | 3 | 2 | 2 | 1 | –
8 | CC(=O)O[C@@H]1CC2C(C)(C)CCC[C@]2(C)C2CC[C@]3(C)C(=CC(=O)O[C@H]3c3ccoc3)[C@@]21C (some centres unmarked) [deoxodeoxydihydrogedunin] | 0 | 3 | 2 | 2 | –
9 | CC(=O)O[C@H]1CC[C@]2(C)[C@H]3C(=O)C=C4[C@@H]5[C@@H](C)[C@H](C)CC[C@]5(C(=O)O)CC[C@@]4(C)[C@]3(C)CC[C@H]2C1(C)C [11-oxoursolic acid acetate] | 3 | 1 | 3 | 2 | –
10 | CC(O)(CS(=O)(=O)c1ccc(F)cc1)C(=O)Nc1ccc(C#N)c(C(F)(F)F)c1 (centres unmarked) [casodex, bicalutamide, reference compound] | – | – | – | – | GE-HTS screen # replicates that score as the androgon deprived state: KNN [1, 2]: 283; GE-HTS screen # replicates that score as the androgon deprived state: Naïve Bayes classifier (P < 0.05) [1, 2]: 268; GE-HTS screen # replicates that score as the androgon deprived state: unweighted summed score (P < 0.05) [1, 2]: 257; GE-HTS screen # replicates that score as the androgon deprived state: weighted summed score (P < 0.05) [1, 2]: 261
11 | avermectin B1 [reference compound] | 3 | 2 | 2 | 2 | –
12 | COc1ccc(C(C)C(=O)c2ccc(O)cc2O)cc1 (centres unmarked) [angolensin] | 3 | 3 | 3 | 3 | –
13 | methylnortichexanthone | 3 | 2 | 2 | 2 | –
14 | CC(=O)O[C@@H]1CC2C(C)(C)[C@H](O)CC[C@]2(C)C2CC[C@@]3(C)[C@H](c4ccoc4)OC(=O)C4OC43[C@@]21C (stereo partly drawn) [3alpha-hydroxydeoxodihydrogedunin] | 3 | 3 | 3 | 3 | –
15 | COC(=O)[C@H](O)[C@H]1C(C)(C)[C@H](OC(C)=O)[C@@H]2CC3=C4CC(=O)O[C@@H](c5ccoc5)[C@]4(C)CC[C@@H]3[C@@]1(C)C2=O [swietenolide-3-acetate] | 2 | 2 | 2 | 2 | –
16 | C=C/C(C)=C\CC1C(C)(O)CCC2C(C)(C)CCCC21C (centres unmarked) [abienol] | 2 | 1 | 3 | 3 | –
17 | Oc1cc(O)c2c(c1)OC(c1ccc(O)c(O)c1)C(O)C2 (single isomer, unassigned; (-)) [(−)-catechin] | – | – | – | – | celastrol score (connectivity score) (celastrol signature): 0; celastrol rank (celastrol signature; rank by celastrol score among 164 Connectivity Map compounds): 113; gedunin score (connectivity score) (gedunin signature): 0.457; gedunin rank (gedunin signature; rank by gedunin score among 164 Connectivity Map compounds): 24
18 | O=c1c(O)c(-c2ccc(O)c(O)c2)oc2cc(O)ccc12 [fisetin] | – | – | – | – | celastrol score (connectivity score) (celastrol signature): 0; gedunin score (connectivity score) (gedunin signature): 0
19 | O=CC[C@@H](O)[C@H](O)[C@H](O)CO [2-deoxy-D-glucose] | – | – | – | – | celastrol score (connectivity score) (celastrol signature): 0; gedunin score (connectivity score) (gedunin signature): 0.378
